Measured values as given in patent US20230021448A1, “COMPOUNDS AND COMPOSITIONS FOR TREATING CONDITIONS ASSOCIATED WITH STING ACTIVITY” (IFM Due, Inc., priority 2019, published 2023).
pEC50: −log10 of the molar value.

Biological target: T1, STING (Homo sapiens, UniProt Q86WV6, G230A/H232R/R293Q/R71H)
T1 construct: host or cells: THP1-Dual KO-IFNAR2 cells
Assay: STING reporter assay: luciferase reporter activity in THP1-Dual KO-IFNAR2 cells stimulated with 2'3'cGAMP
Format: cell-based
Details: 2′3′cGAMP 15 μM final, 24h, read-out: hSTING: EC50
Procedure: STING pathway activation by the compounds described herein was measured using THIP1-Dua1™ cells (KO-IFNAR2).
TTIP1-Dual™ KO-IFNAR2 Cells (obtained from invivogen) were maintained in RPMI, 10% FCS, 5 ml P/S, 2 mM L-glut, 10 mM Hepes, and 1 mM sodium pyruvate. Compounds were spotted in empty 384 well tissue culture plates (Greiner 781182) by Echo for a final concentration of 0.0017-100 μM. Cells were plated into the TC plates at 40 μL per well, 2×10E6 cells/mL. For activation with STING ligand, 2′3′cGAMP (MW 718.38, obtained from Invivogen), was prepared in Optimem media.
The following solutions were prepared for each 1×384 plate: • Solution A: 2 mL Optimem with one of the following stimuli: • […] • Solution B: 2 mL Optimem with 60 μL Lipofectamine 2000->Incubate 5 min at RT
2 mL of solution A and 2 ml Solution B was mixed and incubated for 20 min at room temperature (RT). 20 uL of transfection solution (A+B) was added on top of the plated cells, with a final 2′3′cGAMP concentration of 15 μM. The plates were then centrifuged immediately at 340 g for 1 minute, after which they were incubated at 37° C., 5% C02, >98% humidity for 24h. Luciferase reporter activity was then measured. EC50 values were calculated by using standard methods known in the art.
Luciferase reporter assay: 10 μL of supernatant from the assay was transferred to white 384-plate with flat bottom and squared wells. One pouch of QUANTI-Luc™ Plus was dissolved in 25 mL of water. 100 μL of QLC Stabilizer per 25 mL of QUANTI-Luc™ Plus solution was added. 50 μL of QUANTI-Luc™ Plus/QLC solution per well was then added. Luminescence was measured on a Platereader (e.g., Spectramax I3X (Molecular Devices GF3637001)).
Luciferase reporter activity was then measured. EC50 values were calculated by using standard methods known in the art.

T1 sequence (Q86WV6 whole entry R71H/G230A/H232R/R293Q): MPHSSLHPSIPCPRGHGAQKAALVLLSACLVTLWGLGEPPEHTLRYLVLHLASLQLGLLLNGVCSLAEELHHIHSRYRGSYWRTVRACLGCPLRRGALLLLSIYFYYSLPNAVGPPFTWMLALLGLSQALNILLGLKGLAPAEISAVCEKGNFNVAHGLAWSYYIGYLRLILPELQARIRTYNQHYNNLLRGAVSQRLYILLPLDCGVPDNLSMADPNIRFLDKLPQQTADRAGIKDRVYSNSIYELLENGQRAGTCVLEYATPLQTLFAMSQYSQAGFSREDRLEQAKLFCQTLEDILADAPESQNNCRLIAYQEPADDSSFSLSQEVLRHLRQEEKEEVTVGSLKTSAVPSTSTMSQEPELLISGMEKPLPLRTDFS

pEC50 | SMILES
6.00 to 6.70 | O=C(Nc1ccc(C(F)(F)F)c(Cl)c1)C(=O)Nc1c[nH]c2cc(F)c(F)cc12 [Compound 181]
6.00 to 6.70 | O=C(Nc1c[nH]c2cc(F)c(F)cc12)C(=O)N1CCCC(Oc2ccc(C(F)(F)F)cc2)C1 (stereo not drawn) [Compound 195]
6.00 to 6.70 | O=C(Nc1c[nH]c2cc(F)c(F)cc12)C(=O)N[C@H]1C[C@H](Nc2ccc(C(F)(F)F)cn2)C1 [Compound 197]
6.00 to 6.70 | O=C(Nc1c[nH]c2cc(F)c(F)cc12)C(=O)N[C@H]1C[C@@H](Oc2ccc(C(F)(F)F)nc2)C1 [Compound 198]
6.00 to 6.70 | O=C(NCCCOc1ccc(C(F)(F)F)nc1)C(=O)Nc1c[nH]c2cc(F)c(F)cc12 [Compound 200]
6.00 to 6.70 | O=C(Nc1c[nH]c2cc(F)c(F)cc12)C(=O)N[C@H]1C[C@H](Oc2cncc(C(F)(F)F)c2)C1 [Compound 201]
6.00 to 6.70 | O=C(NCC(=O)N1CCc2cccnc21)C(=O)Nc1c[nH]c2cc(F)c(F)cc12 [Compound 203]
6.70 to 7.40 | O=C(NCC(=O)N1CCc2ccc(C(F)(F)F)cc21)C(=O)Nc1c[nH]c2cc(F)c(F)cc12 [Compound 204]
5.30 to 6.00 | O=C(Nc1c[nH]c2cc(F)c(F)cc12)C(=O)NC1CC2CCC(C1)C2Oc1ccc(C(F)(F)F)cc1 (stereo not drawn) [Compound 205]
6.00 to 6.70 | O=C(Nc1c[nH]c2cc(F)c(F)cc12)C(=O)N[C@H]1C[C@H](Oc2ccc(C(F)(F)F)cn2)C1 [Compound 210]
5.30 to 6.00 | O=C(Nc1c[nH]c2cc(F)c(F)cc12)C(=O)N1CCN(CCc2ccc(C(F)(F)F)cc2)CC1 [Compound 216]
6.00 to 6.70 | O=C(Nc1c[nH]c2cc(F)c(F)cc12)C(=O)NC1CCC(Oc2ccc(C(F)(F)F)cc2)C1 (stereo not drawn) [Compound 217]
6.00 to 6.70 | O=C(Nc1c[nH]c2cc(F)c(F)cc12)C(=O)NC1CC(Oc2ccc(C(F)(F)F)cc2)C1 (stereo not drawn) [Compound 218]
6.00 to 6.70 | O=C(Nc1c[nH]c2cc(F)c(F)cc12)C(=O)NC1CCC(Oc2ccc(C(F)(F)F)cn2)C1 (stereo not drawn) [Compound 221]
6.70 to 7.40 | O=C(Nc1c[nH]c2cc(F)c(F)cc12)C(=O)NC1CC(Oc2ccc(C(F)(F)F)cn2)C1 (stereo not drawn) [Compound 226]
5.30 to 6.00 | O=C(Nc1c[nH]c2cc(F)c(F)cc12)C(=O)N[C@H]1CC[C@@H](Oc2ccc(C(F)(F)F)cn2)CC1 [Compound 229]
6.70 to 7.40 | O=C(Nc1c[nH]c2cc(F)c(F)cc12)C(=O)N[C@H]1CC[C@H](Oc2ccc(C(F)(F)F)cn2)CC1 [Compound 230, N-(5,6-difluoro-1H-indol-3-yl)-N′-[trans-4-[[5-(trifluoromethyl)pyridin-2-yl]oxy]cyclohexyl]ethanediamide]
6.00 to 6.70 | O=C(Nc1c[nH]c2cc(F)c(F)cc12)C(=O)N[C@H]1CCCC(Oc2ccc(C(F)(F)F)cc2)C1 (stereo partly drawn) [Compound 233]
6.00 to 6.70 | O=C(Nc1c[nH]c2cc(F)c(F)cc12)C(=O)N[C@@H]1CCCC(Oc2ccc(C(F)(F)F)cc2)C1 (stereo partly drawn) [Compound 234]
5.30 to 6.00 | O=C(Nc1cnc(-n2nccn2)c(C(F)(F)F)c1)C(=O)Nc1c[nH]c2cc(F)c(F)cc12 [Compound 238, N1-(6-(2H-1,2,3-triazol-2-yl)-5-(trifluoromethyl)pyridin-3-yl)-N2-(5,6-difluoro-1H-indol-3-yl)oxalamide]
6.00 to 6.70 | O=C(Nc1c[nH]c2cc(F)c(F)cc12)C(=O)N1CCN(c2ccc(CC(F)(F)F)cn2)CC1 [Compound 241]
5.30 to 6.00 | O=C(Nc1c[nH]c2cc(F)c(F)cc12)C(=O)N[C@H]1CC[C@@H](Oc2ccc(C(F)(F)F)cc2)CC1 [Compound 249]
6.70 to 7.40 | O=C(Nc1c[nH]c2cc(F)c(F)cc12)C(=O)N[C@H]1CC[C@H](Oc2ccc(C(F)(F)F)cc2)CC1 [Compound 250, N-(5,6-difluoro-1H-indol-3-yl)-N′-(trans-4-(4-(trifluoromethyl)phenoxy)cyclohexyl)oxalamide]
5.30 to 6.00 | O=C(Nc1c[nH]c2cc(F)c(F)cc12)C(=O)N1CCC(Cc2ccc(C(F)(F)F)cc2)CC1 [Compound 251]

Further lines, the compound ahead of its results:

SMILES | pEC50
O=C(Nc1ccc(C(F)(F)F)cc1)C(=O)Nc1c[nH]c2ccc(F)c(F)c12 [Compound 180] | 6.00 to 6.70
C#Cc1ccc(NC(=O)C(=O)Nc2c[nH]c3cc(F)c(F)cc23)cc1 [Compound 182] | 6.00 to 6.70
Cc1cc(NC(=O)C(=O)Nc2c[nH]c3ccccc23)cc(C(F)(F)F)c1 [Compound 183] | 6.00 to 6.70
O=C(Nc1ccc(C(F)(F)F)cc1)C(=O)Nc1c[nH]c2ccc(F)cc12 [Compound 184] | 6.00 to 6.70
CC[C@H]1CC[C@@H](NC(=O)C(=O)Nc2c[nH]c3cc(F)c(F)cc23)CC1 [Compound 185] | 6.00 to 6.70
CC[C@H]1CC[C@H](NC(=O)C(=O)Nc2c[nH]c3cc(F)c(F)cc23)CC1 [Compound 186] | 6.70 to 7.40
O=C(Nc1c[nH]c2cc(F)c(F)cc12)C(=O)N[C@H]1CC[C@@H](OCC(F)F)CC1 [Compound 187] | 5.30 to 6.00
O=C(NCCC12C[C@H]3C[C@@H](C1)C[C@@H](C2)C3)C(=O)Nc1c[nH]c2cc(F)c(F)cc12 [Compound 188] | 6.00 to 6.70
O=C(NCC1CC12CCCCC2)C(=O)Nc1c[nH]c2cc(F)c(F)cc12 (stereo not drawn) [Compound 189] | 6.00 to 6.70
O=C(NCCC1CC2CCC1C2)C(=O)Nc1c[nH]c2cc(F)c(F)cc12 (stereo not drawn) [Compound 190] | 6.00 to 6.70
CC(C)(C)C1CCC(NC(=O)C(=O)Nc2c[nH]c3cc(F)c(F)cc23)CC1 (stereo not drawn) [Compound 191] | 6.00 to 6.70
Cc1ccc(O[C@H]2C[C@H](NC(=O)C(=O)Nc3c[nH]c4cc(F)c(F)cc34)C2)cn1 [Compound 196] | 6.00 to 6.70
Cc1ccc(O[C@H]2C[C@H](NC(=O)C(=O)Nc3c[nH]c4cc(F)c(F)cc34)C2)nc1 [Compound 199] | 6.70 to 7.40
O=C(Nc1c[nH]c2cc(F)c(F)cc12)C(=O)N[C@H]1CC[C@H](Nc2ccccn2)CC1 [Compound 202, N-(5,6-difluoro-1H-indol-3-yl)-N′-[trans-4-(pyridin-2-ylamino)cyclohexyl]ethanediamide] | 4.00 to 5.30
CC(C)(CO)CCCN1CCN(C(=O)C(=O)Nc2c[nH]c3cc(F)c(F)cc23)CC1 [Compound 206] | 4.00 to 5.30
O=C(Nc1c[nH]c2ccc(Cl)cc12)C(=O)N[C@H]1C[C@H](Nc2ccccn2)C1 [Compound 208] | 5.30 to 6.00
O=C(Nc1c[nH]c2cc(F)c(Cl)cc12)C(=O)N[C@H]1CC[C@H](Oc2ccc(C(F)(F)F)cn2)CC1 [Compound 209, N-(5-chloro-6-fluoro-1H-indol-3-yl)-N′-(trans-4-((5-(trifluoromethyl)pyridin-2-yl)oxy)cyclohexyl)oxalamide] | 6.00 to 6.70
O=C(Nc1c[nH]c2cc(F)c(F)cc12)C(=O)N[C@H]1CC[C@H](NCC(F)(F)F)CC1 [Compound 211] | 5.30 to 6.00
O=C(Nc1c[nH]c2ccc(Cl)cc12)C(=O)N[C@H]1C[C@H](Oc2ccccn2)C1 [Compound 212] | 6.00 to 6.70
O=C(Nc1c[nH]c2ccc(Cl)cc12)C(=O)N[C@H]1CC[C@H](Oc2ccc(C(F)(F)F)cc2)CC1 [Compound 213, N-(5-chloro-1H-indol-3-yl)-N′-(trans-4-(4-(trifluoromethyl)phenoxy)cyclohexyl)oxalamide] | 6.70 to 7.40
N#Cc1cc(F)c2[nH]cc(NC(=O)C(=O)NCc3ccc(C(F)(F)F)c(Cl)c3)c2c1 [Compound 215] | 6.00 to 6.70
CN1CCOc2cc(NC(=O)C(=O)Nc3c[nH]c4cc(F)c(F)cc34)cnc21 [Compound 219] | 5.30 to 6.00
O=C(Nc1c[nH]c2cc(F)c(F)cc12)C(=O)N[C@H]1CC[C@@H](Oc2ccc(C(F)(F)F)nc2)CC1 [Compound 222] | 6.00 to 6.70
O=C(Nc1c[nH]c2cc(F)c(F)cc12)C(=O)N[C@H]1CC[C@H](Oc2ccc(C(F)(F)F)nc2)CC1 [Compound 223, N-(5,6-difluoro-1H-indol-3-yl)-N′-[trans-4-[[6-(trifluoromethyl)pyridin-3-yl]oxy]cyclohexyl]ethanediamide] | 6.00 to 6.70
O=C(Nc1c[nH]c2cc(F)c(F)cc12)C(=O)NC1CCC(Oc2ccc(C(F)(F)F)nc2)CC1 (stereo not drawn) [Compound 224] | 6.70 to 7.40
O=C(Nc1c[nH]c2cc(F)ccc12)C(=O)NC1CCC(Oc2ccc(C(F)(F)F)cn2)CC1 (stereo not drawn) [Compound 225, N-(6-fluoro-1H-indol-3-yl)-N′-(4-((5-(trifluoromethyl)pyridin-2-yl)oxy)cyclohexyl)oxalamide] | 6.70 to 7.40
N#Cc1cc(NC(=O)C(=O)Nc2c[nH]c3cc(F)c(F)cc23)cnc1N1CCCC1 [Compound 231] | 6.00 to 6.70
Cc1cc(NC(=O)C(=O)Nc2c[nH]c3cc(F)c(-c4cnn(C)c4)cc23)cnc1N1CCC(F)(F)CC1 [Compound 232] | 5.30 to 6.00
Cc1ccc(CNC(=O)C(=O)Nc2c[nH]c3cc(F)c(F)c(Br)c23)cc1C(F)(F)F [Compound 242] | 4.00 to 5.30
O=C(Nc1c[nH]c2cc(F)c(F)cc12)C(=O)N1CCC2(CCCCC2)CC1 [Compound 252] | 5.30 to 6.00
